#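 Method: 48-hour compound exposure of cells in 96-well plates, five concentrations, linear interpolation of endpoints. Abbreviation: GI50, concentration required for 50% inhibition of growth.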 Calls of active or inactive are those of the source. Rule as the data show it: active = GI50 up to about 1.1 µM and inactive = higher. Positions of bridges follow the written chain, without caps; N, C: chain ends. Residues, ends and D or L forms follow the SMILES beside them.
# Columns and labels:
# Assay in all cases: inhibition of tumour cell growth, NCI panel, 48 h
# 786-0 = test system: 786-0
# OVCAR-4 = test system: OVCAR-4
# TK-10 = test system: TK-10
# M14 = test system: M14
# HT-29 = test system: HT-29
# SR = test system: SR
# HCC 2998 = test system: HCC 2998
# KM12 = test system: KM12
# OVCAR-5 = test system: OVCAR-5
# CAKI-1 = test system: CAKI-1
# NCI-H522 = test system: NCI-H522
# NCI/ADR-RES = test system: NCI/ADR-RES
# NCI-H23 = test system: NCI-H23
# UO-31 = test system: UO-31
# NCI-H460 = test system: NCI-H460
# CCRF-CEM = test system: CCRF-CEM
# HL-60 = test system: HL-60
# SK-MEL-28 = test system: SK-MEL-28
# SW-620 = test system: SW-620
# SK-OV-3 = test system: SK-OV-3
Structure (SMILES),GI50 (786-0),GI50 (OVCAR-4),GI50 (TK-10),GI50 (M14),GI50 (HT-29),GI50 (SR),GI50 (HCC 2998),GI50 (KM12),GI50 (OVCAR-5),GI50 (CAKI-1),GI50 (NCI-H522),GI50 (NCI/ADR-RES),GI50 (NCI-H23),GI50 (UO-31),GI50 (NCI-H460),GI50 (CCRF-CEM),GI50 (HL-60),GI50 (SK-MEL-28),GI50 (SW-620),GI50 (SK-OV-3)
Cc1ccc(/C(O)=C/c2nc3ccccc3oc2=O)cc1,85.3 µM (inactive),> 100 µM (inactive),> 100 µM (inactive),> 100 µM (inactive),> 100 µM (inactive),26.9 µM (inactive),> 100 µM (inactive),> 100 µM (inactive),> 100 µM (inactive),> 100 µM (inactive),16.7 µM (inactive),25.5 µM (inactive),72.1 µM (inactive),40.1 µM (inactive),> 100 µM (inactive),12.8 µM (inactive),,,,
COc1ccc2c(=O)c3cc([N+](=O)[O-])ccc3n(C)c2c1,> 100 µM (inactive),> 100 µM (inactive),> 100 µM (inactive),> 100 µM (inactive),,> 100 µM (inactive),> 100 µM (inactive),> 100 µM (inactive),> 100 µM (inactive),> 100 µM (inactive),> 100 µM (inactive),> 100 µM (inactive),,> 100 µM (inactive),> 100 µM (inactive),> 100 µM (inactive),> 100 µM (inactive),> 100 µM (inactive),> 100 µM (inactive),
CC1(C)OC2C(CO)OC(n3cnc(N)nc3=O)C2O1 (stereo not given),> 100 µM (inactive),,> 100 µM (inactive),> 100 µM (inactive),,> 100 µM (inactive),> 100 µM (inactive),,> 100 µM (inactive),> 100 µM (inactive),> 100 µM (inactive),> 100 µM (inactive),> 100 µM (inactive),> 100 µM (inactive),> 100 µM (inactive),> 100 µM (inactive),> 100 µM (inactive),> 100 µM (inactive),> 100 µM (inactive),> 100 µM (inactive)
O=C1CC(C(O)C(O)C(O)CO)CC(=O)N1 (stereo not given),> 100 µM (inactive),> 100 µM (inactive),> 100 µM (inactive),> 100 µM (inactive),> 100 µM (inactive),> 100 µM (inactive),> 100 µM (inactive),> 100 µM (inactive),> 100 µM (inactive),> 100 µM (inactive),> 100 µM (inactive),> 100 µM (inactive),> 100 µM (inactive),> 100 µM (inactive),> 100 µM (inactive),> 100 µM (inactive),> 100 µM (inactive),> 100 µM (inactive),> 100 µM (inactive),
OCC1OC(n2cnc3c2N=CNC[C@H]3O)C(Cl)C1O (stereo not given in full),> 100 µM (inactive),> 100 µM (inactive),> 100 µM (inactive),> 100 µM (inactive),> 100 µM (inactive),> 100 µM (inactive),> 100 µM (inactive),> 100 µM (inactive),> 100 µM (inactive),> 100 µM (inactive),> 100 µM (inactive),> 100 µM (inactive),> 100 µM (inactive),> 100 µM (inactive),> 100 µM (inactive),> 100 µM (inactive),> 100 µM (inactive),> 100 µM (inactive),> 100 µM (inactive),
Cc1cccc2c1C/C(=C\c1cccc(C)c1C(=O)O)C2=O,> 100 µM (inactive),> 100 µM (inactive),> 100 µM (inactive),> 100 µM (inactive),70.1 µM (inactive),54.7 µM (inactive),> 100 µM (inactive),> 100 µM (inactive),> 100 µM (inactive),> 100 µM (inactive),> 100 µM (inactive),> 100 µM (inactive),> 100 µM (inactive),> 100 µM (inactive),> 100 µM (inactive),84.9 µM (inactive),> 100 µM (inactive),> 100 µM (inactive),> 100 µM (inactive),
CC(O)(/C=C/c1ccccc1)P(=O)(O)c1ccccc1 (stereo not given),> 100 µM (inactive),> 100 µM (inactive),> 100 µM (inactive),> 100 µM (inactive),> 100 µM (inactive),> 100 µM (inactive),47.2 µM (inactive),> 100 µM (inactive),> 100 µM (inactive),> 100 µM (inactive),> 100 µM (inactive),> 100 µM (inactive),> 100 µM (inactive),,> 100 µM (inactive),,> 100 µM (inactive),> 100 µM (inactive),> 100 µM (inactive),> 100 µM (inactive)
CC1(C)CCCCCCCCCC(C)(CCCO)C1=O (stereo not given),16.9 µM (inactive),15.5 µM (inactive),,14.3 µM (inactive),13.7 µM (inactive),35.2 µM (inactive),17.7 µM (inactive),18.4 µM (inactive),15.5 µM (inactive),17.7 µM (inactive),15.4 µM (inactive),16.6 µM (inactive),15.5 µM (inactive),12 µM (inactive),18.4 µM (inactive),28.9 µM (inactive),19.7 µM (inactive),18.2 µM (inactive),19.7 µM (inactive),17.4 µM (inactive)
O=C(c1ccc(/N=C/c2ccccc2O)cc1)c1ccc(/N=C/c2ccccc2O)cc1,> 100 µM (inactive),> 100 µM (inactive),> 100 µM (inactive),> 100 µM (inactive),> 100 µM (inactive),> 100 µM (inactive),> 100 µM (inactive),> 100 µM (inactive),> 100 µM (inactive),> 100 µM (inactive),> 100 µM (inactive),> 100 µM (inactive),> 100 µM (inactive),> 100 µM (inactive),> 100 µM (inactive),,> 100 µM (inactive),> 100 µM (inactive),> 100 µM (inactive),> 100 µM (inactive)
CCC(C)C1NC(=O)C(CC(C)C)NC(=O)C(C(C)C)NC(=O)C2CSSCC(NC1=O)C(=O)N2 (stereo not given) (cyclo(CCVLI); disulfide 1-2; configuration not given here),0.157 µM (active),0.18 µM (active),0.687 µM (active),0.277 µM (active),0.177 µM (active),0.178 µM (active),0.082 µM (active),0.0507 µM (active),0.16 µM (active),1.74 µM (inactive),0.142 µM (active),2.55 µM (inactive),0.138 µM (active),2.16 µM (inactive),0.116 µM (active),0.0228 µM (active),0.155 µM (active),0.122 µM (active),0.16 µM (active),
C=C1C(=O)[C@]23C[C@H]1C[C@@H](O)[C@H]2[C@]1(COC3=O)[C@@H](OC(C)=O)CC[C@@](C)(COC(C)=O)[C@H]1C=O [LOXOTHYRIN A],36.4 µM (inactive),> 50 µM (inactive),> 50 µM (inactive),,> 50 µM (inactive),28.4 µM (inactive),> 50 µM (inactive),> 50 µM (inactive),> 50 µM (inactive),9.38 µM (inactive),7.28 µM (inactive),> 50 µM (inactive),> 50 µM (inactive),> 50 µM (inactive),> 50 µM (inactive),7.28 µM (inactive),8.59 µM (inactive),19.5 µM (inactive),9.29 µM (inactive),

# From ChEMBL document CHEMBL1201862, “PubChem BioAssay data set” (2004)
